How the values were obtained:
[1] = tested on: MEMs in WT-GBM tumors; experiment: Free peptide homing and immunofluorescence in the orthotopic WT-GBM glioblastoma model; conditions: 30 nmoles i.v., 2 h
Method: (§1) Thirty nmoles of FAM-UNO or FAM-control peptide were injected intravenously into mice and allowed to circulate for 2 h. Mice were then sacrificed and tumor and tissues were analyzed by immunofluorescence using rabbit anti-FAM (green) and rat anti-CD206 (red) antibodies, and counterstained with DAPI. […] The metastases were induced by i.v. inoculation of B16F10 melanoma cells. […] Blue: DAPI. Representative fields from multiple sections (n≥3) prepared from at least 3 tumors are shown. Scale bar: 50 μm. Images shown are representative fields from multiple sections (≥3) prepared from at least 3 tumors (n≥3 mice). The graphs show mean+SEM of FAM signal quantified as described in Materials and Methods.
(§2) Tumor models were induced according to protocols approved by the Estonian Ministry of Agriculture, Committee of Animal Experimentation (permit #48). For the 4T1 breast model, 8-week old female Balb/c mice were injected in the mammary fat pad with 10^6 cells dispersed in 50 μL of PBS. For homing studies, mice were used 10 days later, when the tumor had reached ˜150 mm^3. For MCF-7 breast model, 8-week old female nude mice were implanted with an estrogen pellet, and 1 week later inoculated with 5×10^6 MCF-7 cells in 100 μL of cold Matrigel (BD Biosciences, CA, USA). Mice were used for homing studies three weeks later (tumor volume˜150 mm^3). For the metastatic gastric carcinoma, 10^6 MKN45-P cells in PBS were injected intraperitoneally in 8-week old female nude mice. Mice were used for homing studies two weeks later. For the metastatic melanoma model, 2×10^5 B16F10 cells were injected intravenously in 100 μL of PBS in C57 BL6 mice. The mice were used for homing studies 10 days after. For the angiogenic glioblastoma model, WT-GBM 24, 7×10^5 cells were stereotactically injected in the right striatum of Fox/Nu mice 2 mm lateral and posterior of bregma of 2.5 mm deep. The mice were used for homing studies 6-7 days after the injection.
For free peptide homing studies, mice were injected intravenously with 30 nmoles of FAM-peptides in 100 μL of PBS. For nanoparticle homing studies-FAM-UNO—NP-PTX-, mice were injected intravenously in mice bearing MCF-7 breast tumors with 1 mg of Polymer in 100 μL pf PBS and allowed to circulate for 6 h. For tissue collection, the mice were anesthetized and the tissues collected and immediately placed in 4% cold PFA and left overnight at 4-C. Tissues were washed with PBS for 2 h at room temperature and cryoprotected with sucrose 15% at 4-C overnight and then in sucrose 30% at 4·C overnight. […] FAM was detected using Rabbit anti-FITC (Invitrogen, CA, USA. Catalog # A-889) at a dilution of 1/100 and using Alexa Fluor-546 anti-rabbit antibody (Invitrogen, Ca, USA. Catalog # A-11035) at a dilution of 1/200.

[2] = tested on: MEMs in B16F10 melanoma lung metastases; conditions: 30 nmoles i.v., 2 h
Method: as §1
as §2, with “For the angiogenic glioblastoma model, WT-GBM 24, 7×10^5 cells were stereotactically injected in the right striatum of Fox/Nu mice 2 mm lateral and posterior of bregma of 2.5 mm deep. The mice were used for homing studies 6-7 days after the injection.” left out
(§3) For free peptide homing studies, mice were injected intravenously with 30 nmoles of FAM-peptides in 100 μL of PBS. […] FAM was detected using Rabbit anti-FITC (Invitrogen, CA, USA. Catalog # A-889) at a dilution of 1/100 and using Alexa Fluor-546 anti-rabbit antibody (Invitrogen, Ca, USA. Catalog # A-11035) at a dilution of 1/200.

[3] = tested on: MEMs in MKN45-P tumors; conditions: 30 nmoles i.v., 2 h
Method: as §1
as §2, with “For the angiogenic glioblastoma model, WT-GBM 24, 7×10^5 cells were stereotactically injected in the right striatum of Fox/Nu mice 2 mm lateral and posterior of bregma of 2.5 mm deep. The mice were used for homing studies 6-7 days after the injection.” left out
as §3

[4] = tested on: MRC1/CD206-expressing tumor-associated macrophages (MEMs) in 4T1 tumors; experiment: Free peptide homing and immunofluorescence in the orthotopic 4T1 breast tumor model; conditions: 30 nmoles i.v., 2 h circulation
Method: (SEQ ID NO: 5) control peptide were injected intravenously into 4T1 tumor-bearing mice and allowed to circulate for 2 h. Mice were then sacrificed and tumor and tissues were analyzed by immunofluorescence using rabbit anti-FAM (green) and rat anti-CD206 or rat anti-TIE2 (red) antibodies, and counterstained with DAPI. All images were taken under the same imaging conditions. FAM-UNO accumulated in macrophages within tumors and lymph nodes positive for CD206 staining (A, B, C) and TIE2 (D, and H: Blow up of D). […] To ascertain that anti-CD206 is capable of detecting CD206 in the liver, an image was acquired with longer exposure time from an uninjected animal (FIG. 25). […] Green: FAM-peptide; Red: CD206 or TIE2, Blue: DAPI. Representative fields from multiple sections prepared from at least 3 tumors (n≥3 mice) are shown.
as §2
For free peptide homing studies, mice were injected intravenously with 30 nmoles of FAM-peptides in 100 μL of PBS. For nanoparticle homing studies-FAM-UNO—NP-PTX-, mice were injected intravenously in mice bearing MCF-7 breast tumors with 1 mg of Polymer in 100 μL pf PBS and allowed to circulate for 6 h. For tissue collection, the mice were anesthetized and the tissues collected and immediately placed in 4% cold PFA and left overnight at 4-C. Tissues were washed with PBS for 2 h at room temperature and cryoprotected with sucrose 15% at 4-C overnight and then in sucrose 30% at 4·C overnight. The tumor and the control organs were placed together in the same block with OCT compound (Leica Biosystems, Wetzlar, Germany), snap-frozen in isopentane, and sectioned at 10 μm. FAM was detected using Rabbit anti-FITC (Invitrogen, CA, USA. Catalog # A-889) at a dilution of 1/100 and using Alexa Fluor-546 anti-rabbit antibody (Invitrogen, Ca, USA. Catalog # A-11035) at a dilution of 1/200. CD31 was detected using rat anti-mouse CD31 (BD Biosciences, CA, USA. Catalog #: 553370), TIE2 was detected using rat anti-mouse TIE2 (Biolegend, CA, USA. Catalog #124001), CD209 was detected using rat anti-mouse CD209 (Biolegend, CA, USA. Catalog #147802), HLA ABC was detected using rat anti Human HLA ABC (Bio-Rad, CA, USA. Product code MCA485G), and CD206 was detected using ratanti-mouse CD206 (Bio-Rad, CA, USA. Product code MCA2235GA); using 1/100 primary antibody dilution and Alexa Fluor-647 anti-Rat antibody (Invitrogen, CA, USA. Catalog #21247) at 1/200 dilution. To quantify FAM signal from confocal images, the green channel of images taken by using 20× magnification objective was opened with ImageJ, converted to 8-bit grayscale and the integrated pixel intensity was measured. Different regions of tumors from three different mice were used.

[5] = tested on: peritoneal macrophages; experiment: In vivo phage display on peritoneal cells of 4T1 tumor-bearing versus normal mice; design: species or system mouse; conditions: phage-displayed peptide
Method: A, Naive phage library was injected intraperitoneally in 4T1 tumor-bearing mice and age-matched normal mice, and allowed to circulate for two h. Peritoneal cells were collected, the accompanying phages were rescued and the peptide-encoding segment of phage DNA was sequenced. […] Peritoneal cells were extracted from the mice, seeded on coverslips, allowed to attach for 2 h, fixed, permeabilized, and stained for CD206. CD206+ cells were counted from 6 different confocal images, 2 from each mouse. C, Highly repeated sequences obtained from the first round of the biopanning experiment shown schematically in panel A. D, Frequency of phage clones encoding UNO or a randomly picked peptide (CIGVSSDC) divided by the total number of repeated sequences) in the 4T1 tumor-bearing and normal mice.
Ten days later, the 4T1 mouse and a Balb/c female mouse of the matched age, were injected with 500 μL of a 7×10^10 pfu/mL of purified CX7C long-circulating library that bears a mutation on the p17 protein of tail fiber^45. After 2 h the mice were anesthetized and peritoneal cells were collected, washed by centrifugation, and lysed by hand-held homogenizer in 2 mL of LB+NP40 1%. The phage was amplified in E. coli strain BLT5403 for high throughput sequencing of peptide encoding segment of the phage genomic DNA using Ion Torrent semiconductor sequencing system.
In vivo phage display was carried out on orthotopic breast cancer bearing mice as outlined in FIG. 1A. Compared to peritoneal cells of healthy mice, […] macrophages were ˜5-fold overrepresented in Balb/c mice bearing metastatic syngeneic 4T1 breast tumors (FIG. 1B). We hypothesized that a peptide that binds to peritoneal macrophages in tumor-bearing mice may also target M2-like TAMs. Mice with 4T1 tumors were injected intraperitoneally (i.p.) with a phage library expressing 9-amino acid cyclic CX7C peptides. After 2 h, peritoneal cells were collected, bound phages were rescued by amplification, and the resulting phage pool was subjected to high-throughput sequencing of the peptide-encoding segment of the phage genome. […]

[6] = tested on: RAW 267.4 cells; experiment: Phage biopanning on cultured CD206- RAW 267.4 macrophages; type: cell-based, mouse; conditions: phage-displayed peptide, 4 °C overnight
Method: A, Cultured RAW 267.4 mouse macrophages were fixed with PFA and stained with rat anti-CD206 (red) and counterstained with DAPI (blue). B, Phage display on RAW 267.4 cells. Cells were lifted using a cell scraper, centrifuged, brought to 4° C. and incubated with 0.5 mL of the same phage library used for the in vivo experiments (0.5 mL of 7×10^10 pfu/mL)+0.5 mL of DMEM, at 4° C. overnight. Cells were then washed four times resuspending in PBS and placing in a new tube every time, lastly the cells were suspended in LB+NP40%, lysed and phage insert were sequenced. The UNO clone is […] of the list (red). Only the top 50 hits from the screen are shown. Scale bar: 50 μm.
Mouse macrophage cell line Raw 267.4 (ATCC, VA, USA) was cultured in DMEM with FBS and antibiotics. Cells from a 25 cm^2 flask (˜3×10^6 cells) were lifted using a cell scraper, centrifuged, brought to 4. C and incubated with 0.5 mL of the same purified library used for the in vivo experiments (0.5 mL of 7×10^10 pfu/mL)+0.5 mL of DMEM, at 4-C overnight. Cells were then washed four times by re-suspending in PBS and placing them in a new tube every time, and finally suspended in LB+1% NP40, lysed and subjected to high throughput sequencing.

Substance: FAM-CRKQGEAKC: FAM-labeled control peptide CRKQGEAKC (SEQ ID NO: 5) of the same charge and molecular weight as FAM-UNO (not fully specified; FAM label) [reference compound]
- accumulation in tumor [1]: did not accumulate in the tumor
- accumulation in tumor ([1]; listed as FAM-Control peptide): Little to no
- homing to melanoma lung metastases [2]: Little to no
- accumulation in MEMs / CD206+ cells [3]: no accumulation was detected in CD206^+ cells
- accumulation in MEMs / tumor homing [4]: no tumor homing

Substance: CSPGAKVRC [peptide codenamed UNO, identified by in vivo phage display]
- overrepresentation of phage in peritoneal cells from 4T1 tumor-bearing mice versus healthy mice ([5]; library injected i.p., 2 h): ~10 fold
- representation among sequenced phage clones ([5]; peritoneal cells of 4T1 tumor mice): most highly represented non-truncated peptide
- position of the phage clone in the list of hits [6]: 2140
